Measurements: US20210045385A1, “PYRIDAZINONE-SUBSTITUTED KETOXIMES AS HERBICIDES” (FMC Corporation, priority 2018, published 2021)

Assays:
Assay type in all cases: in vivo
corn (Zea mays) [1] = assay: Test C postemergence, visual plant response rating; conditions: Test C, postemergence, 1000 g ai/ha
Text: (§1) Seeds of plant species selected from barnyardgrass (Echinochloa crus-galli), kochia (Bassia scoparia), ragweed (common ragweed, Ambrosia artemisiifolia), Italian ryegrass (Lolium mutiflorum), foxtail, giant (giant foxtail, Setaria faberi), foxtail, green (green foxtail, Setaria viridis), and pigweed (Amaranthus retroflexus) were planted into a blend of loam soil and sand and treated preemergence with a directed soil spray using test chemicals formulated in anon-phytotoxic solvent mixture which included a surfactant.
(§2) At the same time, plants selected from these weed species and also wheat (Triticum aestivum), corn (Zea mays), blackgrass (Alopecurus myosuroides), and galium (catchweed bedstraw, Galium aparine) were planted in pots containing the same blend of loam soil and sand and treated with post emergence applications of test chemicals formulated in the same manner. Plants ranged in height from 2 to 10 cm and were in the one- to two-leaf stage for the postemergence treatment. Treated plants and untreated controls were maintained in a greenhouse for approximately 10 d, after which time all treated plants were compared to untreated controls and visually evaluated for injury. Plant response ratings, summarized in Table C, are based on a 0 to 100 scale where 0 is no effect and 100 is complete control. A dash (-)response means no test result.

[2] = test system: foxtail, giant (giant foxtail, Setaria faberi); assay: Test C postemergence, visual plant response rating; conditions: Test C, postemergence, 1000 g ai/ha
Text: as §1, §2

[3] = test system: barnyardgrass (Echinochloa crus-galli); assay: Test C postemergence, visual plant response rating; conditions: Test C, postemergence, 1000 g ai/ha
Text: as §1, §2

[4] = test system: ragweed (common ragweed, Ambrosia artemisiifolia); assay: Test C postemergence, visual plant response rating; conditions: Test C, postemergence, 1000 g ai/ha
Text: as §1, §2

[5] = test system: Italian ryegrass (Lolium mutiflorum); assay: Test C postemergence, visual plant response rating; conditions: Test C, postemergence, 1000 g ai/ha
Text: as §1, §2

[6] = test system: blackgrass (Alopecurus myosuroides); assay: Test C postemergence, visual plant response rating; conditions: Test C, postemergence, 1000 g ai/ha
Text: as §1, §2

[7] = test system: wheat (Triticum aestivum); assay: Test C postemergence, visual plant response rating; conditions: Test C, postemergence, 1000 g ai/ha
Text: as §1, §2

[8] = test system: galium (catchweed bedstraw, Galium aparine); assay: Test C postemergence, visual plant response rating; conditions: Test C, postemergence, 1000 g ai/ha
Text: as §1, §2

[9] = test system: pigweed (Amaranthus retroflexus); assay: Test C postemergence, visual plant response rating; conditions: Test C, postemergence, 1000 g ai/ha
Text: as §1, §2

kochia (Bassia scoparia) [10] = assay: Test C postemergence, visual plant response rating; conditions: Test C, postemergence, 1000 g ai/ha
Text: as §1, §2

[11] = test system: foxtail, giant (giant foxtail, Setaria faberi); assay: Test C preemergence, visual plant response rating; conditions: 1000 g ai/ha
Text: as §1, §2

[12] = test system: barnyardgrass (Echinochloa crus-galli); assay: Test C preemergence, visual plant response rating; conditions: 1000 g ai/ha
Text: as §1, §2

[13] = test system: ragweed (common ragweed, Ambrosia artemisiifolia); assay: Test C preemergence, visual plant response rating; conditions: 1000 g ai/ha
Text: as §1, §2

[14] = test system: Italian ryegrass (Lolium mutiflorum); assay: Test C preemergence, visual plant response rating; conditions: 1000 g ai/ha
Text: as §1, §2

[15] = test system: pigweed (Amaranthus retroflexus); assay: Test C preemergence, visual plant response rating; conditions: 1000 g ai/ha
Text: as §1, §2

kochia (Bassia scoparia) [16] = assay: Test C preemergence, visual plant response rating; conditions: 1000 g ai/ha
Text: as §1, §2

[17] = test system: ragweed (common ragweed, Ambrosia elatior); assay: Test A preemergence, visual plant response rating; conditions: 125 g ai/ha, preemergence; 0 to 100 scale, 0 no effect, 100 complete control
Text: (§3) Seeds of plant species selected from barnyardgrass (Echinochloa crus-galli), kochia (Kochia scoparia), ragweed (common ragweed, Ambrosia elatior), Italian ryegrass (Lolium multiflorum), foxtail, giant (giant foxtail, Setaria faberii), foxtail, green (green foxtail, Setaria viridis), and pigweed (Amaranthus retroflexus) were planted into a blend of loam soil and sand and treated preemergence with a directed soil spray using test chemicals formulated in a non-phytotoxic solvent mixture which included a surfactant.
as §2, with “postemergence” for “post emergence”, “days,” for “d,”, “A,” for “C,”, “(-) response” for “(-)response”

[18] = test system: barnyardgrass (Echinochloa crus-galli); assay: Test A preemergence, visual plant response rating; conditions: 125 g ai/ha, preemergence; 0 to 100 scale, 0 no effect, 100 complete control
Text: as §3
as §2, with “postemergence” for “post emergence”, “days,” for “d,”, “A,” for “C,”, “(-) response” for “(-)response”

[19] = test system: foxtail, giant (giant foxtail, Setaria faberii); assay: Test A preemergence, visual plant response rating; conditions: 125 g ai/ha, preemergence; 0 to 100 scale, 0 no effect, 100 complete control
Text: as §3
as §2, with “postemergence” for “post emergence”, “days,” for “d,”, “A,” for “C,”, “(-) response” for “(-)response”

[20] = test system: Italian ryegrass (Lolium multiflorum); assay: Test A preemergence, visual plant response rating; conditions: 125 g ai/ha, preemergence; 0 to 100 scale, 0 no effect, 100 complete control
Text: as §3
as §2, with “postemergence” for “post emergence”, “days,” for “d,”, “A,” for “C,”, “(-) response” for “(-)response”

[21] = test system: pigweed (Amaranthus retroflexus); assay: Test A preemergence, visual plant response rating; conditions: 125 g ai/ha, preemergence; 0 to 100 scale, 0 no effect, 100 complete control
Text: as §3
as §2, with “postemergence” for “post emergence”, “days,” for “d,”, “A,” for “C,”, “(-) response” for “(-)response”

kochia (Kochia scoparia) [22] = assay: Test A preemergence, visual plant response rating; conditions: 125 g ai/ha, preemergence; 0 to 100 scale, 0 no effect, 100 complete control
Text: as §3
as §2, with “postemergence” for “post emergence”, “days,” for “d,”, “A,” for “C,”, “(-) response” for “(-)response”

corn (Zea mays) [23] = assay: Test A postemergence, visual plant response rating; conditions: Postemergence, 125 g ai/ha; 0 to 100 scale (0 no effect, 100 complete control)
Text: as §3
as §2, with “postemergence” for “post emergence”, “days,” for “d,”, “A,” for “C,”, “(-) response” for “(-)response”

[24] = test system: ragweed (common ragweed, Ambrosia elatior); assay: Test A postemergence, visual plant response rating; conditions: Postemergence, 125 g ai/ha; 0 to 100 scale (0 no effect, 100 complete control)
Text: as §3
as §2, with “postemergence” for “post emergence”, “days,” for “d,”, “A,” for “C,”, “(-) response” for “(-)response”

[25] = test system: barnyardgrass (Echinochloa crus-galli); assay: Test A postemergence, visual plant response rating; conditions: Postemergence, 125 g ai/ha; 0 to 100 scale (0 no effect, 100 complete control)
Text: as §3
as §2, with “postemergence” for “post emergence”, “days,” for “d,”, “A,” for “C,”, “(-) response” for “(-)response”

[26] = test system: foxtail, giant (giant foxtail, Setaria faberii); assay: Test A postemergence, visual plant response rating; conditions: Postemergence, 125 g ai/ha; 0 to 100 scale (0 no effect, 100 complete control)
Text: as §3
as §2, with “postemergence” for “post emergence”, “days,” for “d,”, “A,” for “C,”, “(-) response” for “(-)response”

[27] = test system: blackgrass (Alopecurus myosuroides); assay: Test A postemergence, visual plant response rating; conditions: Postemergence, 125 g ai/ha; 0 to 100 scale (0 no effect, 100 complete control)
Text: as §3
as §2, with “postemergence” for “post emergence”, “days,” for “d,”, “A,” for “C,”, “(-) response” for “(-)response”

[28] = test system: wheat (Triticum aestivum); assay: Test A postemergence, visual plant response rating; conditions: Postemergence, 125 g ai/ha; 0 to 100 scale (0 no effect, 100 complete control)
Text: as §3
as §2, with “postemergence” for “post emergence”, “days,” for “d,”, “A,” for “C,”, “(-) response” for “(-)response”

[29] = test system: galium (catchweed bedstraw, Galium aparine); assay: Test A postemergence, visual plant response rating; conditions: Postemergence, 125 g ai/ha; 0 to 100 scale (0 no effect, 100 complete control)
Text: as §3
as §2, with “postemergence” for “post emergence”, “days,” for “d,”, “A,” for “C,”, “(-) response” for “(-)response”

[30] = test system: Italian ryegrass (Lolium multiflorum); assay: Test A postemergence, visual plant response rating; conditions: Postemergence, 125 g ai/ha; 0 to 100 scale (0 no effect, 100 complete control)
Text: as §3
as §2, with “postemergence” for “post emergence”, “days,” for “d,”, “A,” for “C,”, “(-) response” for “(-)response”

[31] = test system: pigweed (Amaranthus retroflexus); assay: Test A postemergence, visual plant response rating; conditions: Postemergence, 125 g ai/ha; 0 to 100 scale (0 no effect, 100 complete control)
Text: as §3
as §2, with “postemergence” for “post emergence”, “days,” for “d,”, “A,” for “C,”, “(-) response” for “(-)response”

kochia (Kochia scoparia) [32] = assay: Test A postemergence, visual plant response rating; conditions: Postemergence, 125 g ai/ha; 0 to 100 scale (0 no effect, 100 complete control)
Text: as §3
as §2, with “postemergence” for “post emergence”, “days,” for “d,”, “A,” for “C,”, “(-) response” for “(-)response”

Row | Structure (SMILES) | Corn plant response rating (0 to 100 scale) (corn (Zea mays) [1]) | Foxtail, Giant plant response rating (0 to 100 scale) [2] | Barnyardgrass plant response rating (0 to 100 scale) [3] | Ragweed plant response rating (0 to 100 scale) [4] | Ryegrass, Italian plant response rating (0 to 100 scale) [5] | Blackgrass plant response rating (0 to 100 scale) [6] | Wheat plant response rating (0 to 100 scale) [7] | Galium plant response rating (0 to 100 scale) [8] | Pigweed plant response rating (0 to 100 scale) [9] | Kochia plant response rating (0 to 100 scale) (kochia (Bassia scoparia) [10]) | Foxtail, Giant plant response rating (0 to 100 scale) [11] | Barnyardgrass plant response rating (0 to 100 scale) [12] | Ragweed plant response rating (0 to 100 scale) [13] | Ryegrass, Italian plant response rating (0 to 100 scale) [14] | Pigweed plant response rating (0 to 100 scale) [15] | Kochia plant response rating (0 to 100 scale) (kochia (Bassia scoparia) [16]) | other results
1 | CCO/N=C(\c1c(O)cnn(C)c1=O)c1cccc2ccccc12 [Compound 224] | 0 | 50 | 10 | 50 | 0 | 10 | 0 | 90 | 50 | 0 | 80 | 10 | 70 | 0 | 100 | 20 | 
2 | CCO/N=C(/c1c(O)cnn(C)c1=O)c1cccc2ccccc12 [Compound 225] | 0 | 20 | 10 | 70 | 0 | 20 | 0 | 90 | 60 | 10 | 60 | 0 | 40 | 0 | 80 | 10 | 
3 | CO/N=C(/c1c(O)cnn(C)c1=O)c1cccc2ccccc12 [Compound 237] | 0 | 0 | 0 | 30 | 10 | 10 | 0 | 100 | 90 | 80 | 60 | 0 | 20 | 0 | 90 | 30 | 
4 | CO/N=C(\c1cc(C(F)(F)F)ccc1Cl)c1c(O)c(C)nn(C)c1=O [Compound 54] |  |  |  |  |  |  |  |  |  |  |  |  |  |  |  |  | Ragweed plant response rating [17]: 70; Barnyardgrass plant response rating [18]: 40; Foxtail, Giant plant response rating [19]: 40; Ryegrass, Italian plant response rating [20]: 70; Pigweed plant response rating [21]: 80; Kochia plant response rating (kochia (Kochia scoparia) [22]): 0; Corn plant response rating (corn (Zea mays) [23]): 10; Ragweed plant response rating [24]: 60; Barnyardgrass plant response rating [25]: 30; Foxtail, Giant plant response rating [26]: 40; Blackgrass plant response rating [27]: 40; Wheat plant response rating [28]: 30; Galium plant response rating [29]: 70; Ryegrass, Italian plant response rating [30]: 40; Pigweed plant response rating [31]: 60; Kochia plant response rating (kochia (Kochia scoparia) [32]): 50
